Experimental data reported in PubChem BioAssay (NCI).
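Following 48 hours of exposure in 96-well plates, responses at five concentrations were used to interpolate endpoints linearly. The concentration for full growth arrest is given as TGI.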

Assays:
Experiment in all cases: NCI anticancer screen, dose series, 48 h
786-0 renal = test system: 786-0 renal
A549 NSCLC = test system: A549 NSCLC
ACHN renal = test system: ACHN renal
BT-549 breast = test system: BT-549 breast
CAKI-1 renal = test system: CAKI-1 renal
CCRF-CEM leukemia = test system: CCRF-CEM leukemia
DU-145 prostate = test system: DU-145 prostate
EKVX NSCLC = test system: EKVX NSCLC
HCC-2998 colon = test system: HCC-2998 colon
HCT-116 colon = test system: HCT-116 colon
HCT-15 colon = test system: HCT-15 colon
HL-60(TB) leukemia = test system: HL-60(TB) leukemia
HOP-62 NSCLC = test system: HOP-62 NSCLC
HS 578T breast = test system: HS 578T breast
IGROV1 ovarian = test system: IGROV1 ovarian
K-562 leukemia = test system: K-562 leukemia
KM12 colon = test system: KM12 colon
M14 melanoma = test system: M14 melanoma
MCF7 breast = test system: MCF7 breast
MDA-MB-231 breast = test system: MDA-MB-231 breast
MDA-MB-435 = test system: MDA-MB-435
MDA-N = test system: MDA-N
MOLT-4 leukemia = test system: MOLT-4 leukemia
NCI-H226 lung = test system: NCI-H226 lung
NCI-H23 lung = test system: NCI-H23 lung
NCI-H460 lung = test system: NCI-H460 lung
NCI-H522 lung = test system: NCI-H522 lung
NCI/ADR-RES ovarian = test system: NCI/ADR-RES ovarian
OVCAR-3 ovarian = test system: OVCAR-3 ovarian
OVCAR-4 ovarian = test system: OVCAR-4 ovarian
OVCAR-8 ovarian = test system: OVCAR-8 ovarian
PC-3 prostate = test system: PC-3 prostate
RPMI-8226 leukemia = test system: RPMI-8226 leukemia
RXF 393 renal = test system: RXF 393 renal
SF-268 CNS = test system: SF-268 CNS
SF-295 CNS = test system: SF-295 CNS
SF-539 CNS = test system: SF-539 CNS
SK-MEL-28 melanoma = test system: SK-MEL-28 melanoma
SK-MEL-5 melanoma = test system: SK-MEL-5 melanoma
SK-OV-3 ovarian = test system: SK-OV-3 ovarian
SN12C renal = test system: SN12C renal
SNB-19 CNS = test system: SNB-19 CNS
SNB-75 CNS = test system: SNB-75 CNS
SR leukemia = test system: SR leukemia
SW-620 colon = test system: SW-620 colon
T-47D breast = test system: T-47D breast
TK-10 renal = test system: TK-10 renal
U251 CNS = test system: U251 CNS
UACC-257 melanoma = test system: UACC-257 melanoma
UACC-62 melanoma = test system: UACC-62 melanoma
UO-31 renal = test system: UO-31 renal
A498 renal = test system: A498 renal
COLO 205 colon = test system: COLO 205 colon
HT29 colon = test system: HT29 colon
LOX IMVI melanoma = test system: LOX IMVI melanoma
OVCAR-5 ovarian = test system: OVCAR-5 ovarian

## O=C1/C(=C/c2ccc([N+](=O)[O-])cc2)Oc2cc(O)ccc21
786-0 renal
  TGI: 70.6 µM
A549 NSCLC
  TGI: 92.9 µM
ACHN renal
  TGI: 56.1 µM
BT-549 breast
  TGI: 78.7 µM
CAKI-1 renal
  TGI: 58.7 µM
CCRF-CEM leukemia
  TGI: 79.2 µM
DU-145 prostate
  TGI: > 100 µM
EKVX NSCLC
  TGI: 96.3 µM
HCC-2998 colon
  TGI: > 100 µM
HCT-116 colon
  TGI: > 100 µM
HCT-15 colon
  TGI: 69.1 µM
HL-60(TB) leukemia
  TGI: 37.4 µM
HOP-62 NSCLC
  TGI: > 100 µM
HS 578T breast
  TGI: 47.9 µM
IGROV1 ovarian
  TGI: > 100 µM
K-562 leukemia
  TGI: 46.9 µM
KM12 colon
  TGI: > 100 µM
M14 melanoma
  TGI: > 100 µM
MCF7 breast
  TGI: > 100 µM
MDA-MB-231 breast
  TGI: 73.9 µM
MDA-MB-435
  TGI: > 100 µM
MDA-N
  TGI: 60.2 µM
MOLT-4 leukemia
  TGI: 44.4 µM
NCI-H226 lung
  TGI: 99.1 µM
NCI-H23 lung
  TGI: > 100 µM
NCI-H460 lung
  TGI: > 100 µM
NCI-H522 lung
  TGI: 65.6 µM
NCI/ADR-RES ovarian
  TGI: 88.3 µM
OVCAR-3 ovarian
  TGI: 73.8 µM
OVCAR-4 ovarian
  TGI: > 100 µM
OVCAR-8 ovarian
  TGI: > 100 µM
PC-3 prostate
  TGI: 66.8 µM
RPMI-8226 leukemia
  TGI: 65.8 µM
RXF 393 renal
  TGI: > 100 µM
SF-268 CNS
  TGI: > 100 µM
SF-295 CNS
  TGI: > 100 µM
SF-539 CNS
  TGI: 94.4 µM
SK-MEL-28 melanoma
  TGI: > 100 µM
SK-MEL-5 melanoma
  TGI: 48 µM
SK-OV-3 ovarian
  TGI: 71.6 µM
SN12C renal
  TGI: 87.1 µM
SNB-19 CNS
  TGI: > 100 µM
SNB-75 CNS
  TGI: > 100 µM
SR leukemia
  TGI: 46.1 µM
SW-620 colon
  TGI: > 100 µM
T-47D breast
  TGI: > 100 µM
TK-10 renal
  TGI: 82.5 µM
U251 CNS
  TGI: 93 µM
UACC-257 melanoma
  TGI: > 100 µM
UACC-62 melanoma
  TGI: > 100 µM
UO-31 renal
  TGI: 51 µM

## Cc1ncc2c(n1)CCC1=C2OS(=O)(=O)CC1N(C)C (configuration not stated)
786-0 renal
  TGI: > 100 µM
A498 renal
  TGI: > 100 µM
A549 NSCLC
  TGI: > 100 µM
ACHN renal
  TGI: > 100 µM
BT-549 breast
  TGI: > 100 µM
CAKI-1 renal
  TGI: > 100 µM
CCRF-CEM leukemia
  TGI: > 100 µM
COLO 205 colon
  TGI: > 100 µM
DU-145 prostate
  TGI: > 100 µM
EKVX NSCLC
  TGI: > 100 µM
HCT-116 colon
  TGI: > 100 µM
HL-60(TB) leukemia
  TGI: > 100 µM
HOP-62 NSCLC
  TGI: > 100 µM
HS 578T breast
  TGI: > 100 µM
HT29 colon
  TGI: > 100 µM
IGROV1 ovarian
  TGI: > 100 µM
K-562 leukemia
  TGI: > 100 µM
KM12 colon
  TGI: > 100 µM
LOX IMVI melanoma
  TGI: > 100 µM
M14 melanoma
  TGI: > 100 µM
MCF7 breast
  TGI: > 100 µM
MDA-MB-231 breast
  TGI: > 100 µM
MDA-MB-435
  TGI: > 100 µM
MDA-N
  TGI: > 100 µM
MOLT-4 leukemia
  TGI: > 100 µM
NCI-H226 lung
  TGI: > 100 µM
NCI-H23 lung
  TGI: > 100 µM
NCI-H460 lung
  TGI: > 100 µM
NCI-H522 lung
  TGI: > 100 µM
OVCAR-3 ovarian
  TGI: > 100 µM
OVCAR-4 ovarian
  TGI: > 100 µM
OVCAR-5 ovarian
  TGI: > 100 µM
OVCAR-8 ovarian
  TGI: > 100 µM
PC-3 prostate
  TGI: > 100 µM
RPMI-8226 leukemia
  TGI: > 100 µM
SF-268 CNS
  TGI: > 100 µM
SF-539 CNS
  TGI: > 100 µM
SK-MEL-28 melanoma
  TGI: > 100 µM
SK-MEL-5 melanoma
  TGI: > 100 µM
SK-OV-3 ovarian
  TGI: > 100 µM
SN12C renal
  TGI: > 100 µM
SNB-19 CNS
  TGI: > 100 µM
SNB-75 CNS
  TGI: > 100 µM
SR leukemia
  TGI: > 100 µM
SW-620 colon
  TGI: > 100 µM
T-47D breast
  TGI: > 100 µM
TK-10 renal
  TGI: > 100 µM
U251 CNS
  TGI: > 100 µM
UACC-257 melanoma
  TGI: > 100 µM
UACC-62 melanoma
  TGI: > 100 µM
UO-31 renal
  TGI: > 100 µM
